From patent US20230099344A1, “COMPOUNDS AND METHODS FOR THE TARGETED DEGRADATION OF IRAK-4” (Arvinas Operations, Inc., priority 2021, published 2023)

Columns and labels:
Format in all cases: cell-based
[1] = tested on: IL6; assay: LPS stimulated IL6 inhibition assay in PBMC; conditions: Homo sapiens, PBMC, 24 h, human PBMCs, LPS stimulation, compound overnight, IL6 by MSD after 24 hrs; for Dmax: read-out: LPS Stim IL6 inhibition Dmax; for IC50: read-out: LPS stim IL6 inhibition IC50
How it was run: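 Primary human PBMCs plated at 2.0×10^6 cells/mL are incubated with compound overnight. Stimulation follows using the donor's EC50 concentration of agonist. MSD detects secreted IL6/IL8 at 24 hrs.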

[2] = tested on: IL6; assay: R848 stimulated IL6 inhibition assay in PBMC; conditions: PBMC, human PBMCs, R848 stimulation, compound overnight, IL6 by MSD after 24 hrs; for Dmax: Homo sapiens, 24 h, read-out: R848 stim IL6 inhibition Dmax; for IC50: read-out: R848 stim IL6 inhibition IC50
Experimental: IL-1β, LPS, or R848 Stimulated IL6 Inhibition and IL-1β Stimulated IL8 Inhibition Assay
Human PBMC cells were seeded at 2.0×10^6 cells/mL, treated with compound overnight, and dosed with the EC50 concentration of each stimulant (either IL-1B. LPS, or R848) was determined for each donor. After 24 hrs, media was collected and analyzed by MSD for IL6 and/or IL8 levels.

[3] = target: T1, IRAK-4 (Homo sapiens, UniProt Q9NWZ3); assay: IRAK-4 ELISA, PBMC degradation; parameters: endogenous in cells; host or cells: PBMC; conditions: treated overnight
T1 sequence (Q9NWZ3 1-460): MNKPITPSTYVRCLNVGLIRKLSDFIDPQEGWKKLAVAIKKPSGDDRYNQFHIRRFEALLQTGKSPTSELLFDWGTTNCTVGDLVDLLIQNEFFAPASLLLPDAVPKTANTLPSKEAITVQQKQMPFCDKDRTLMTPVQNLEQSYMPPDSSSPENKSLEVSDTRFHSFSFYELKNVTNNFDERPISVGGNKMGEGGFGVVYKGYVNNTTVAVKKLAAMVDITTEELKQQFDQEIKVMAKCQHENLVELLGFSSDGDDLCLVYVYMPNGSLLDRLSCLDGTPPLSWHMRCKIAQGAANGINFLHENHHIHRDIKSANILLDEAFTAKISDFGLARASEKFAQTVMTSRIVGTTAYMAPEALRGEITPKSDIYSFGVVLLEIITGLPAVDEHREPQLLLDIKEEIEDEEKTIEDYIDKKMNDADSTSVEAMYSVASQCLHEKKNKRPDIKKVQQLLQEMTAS
How it was run: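 ELISA quantification of cellular IRAK-4 after compound treatment overnight; PBMC were plated at 2×10^6/ml, OCI-Ly10 at 1×10^6/ml.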

| SMILES | Dmax [1] [%] | IC50 [1] [µM] | Dmax [2] [%] | IC50 [2] [µM] | DC50 [3] [µM] | Dmax [3] [%] | PBMC DC90 [3] |
| --- | --- | --- | --- | --- | --- | --- | --- |
| COc1cc(N2CC(F)(CN3CCC(n4cc5cc(NC(=O)c6cnn7cccnc67)c(OCC6CC6)cc5n4)CC3)C2)cc2c1C(=O)N(C1CCC(=O)NC1=O)C2=O (stereo not shown) [Example 240] | 80 to 90 | 0.05 to 0.1 | ≥ 90 | 0.01 to 0.05 | < 0.001 | 80 to 90 | A (A represents a DC90 value <10.0 nM) |
| COc1cc(N2CC(F)(CN3CCC(n4cc5cc(NC(=O)c6cnn7cccnc67)c(OC(C)C)nc5n4)CC3)C2)cc2c1C(=O)N(C1CCC(=O)NC1=O)C2=O (stereo not shown) [Example 241] | – | ≥ 0.1 | 80 to 90 | 0.01 to 0.05 | 0.001 to 0.005 | 70 to 80 | B (B represents a DC90 value ≥10.0 nM and <25.0 nM) |
| O=C1CCC(N2C(=O)c3ccc(N4CC(F)(CN5CCC(n6cc7cc(NC(=O)c8cnn9cccnc89)c(N8CCC(N9CCC9)CC8)cc7n6)CC5)C4)cc3C2=O)C(=O)N1 (stereo not shown) [Example 243] | < 70 | 0.01 to 0.05 | ≥ 90 | 0.01 to 0.05 | 0.005 to 0.01 | 80 to 90 | D (D represents a DC90 value ≥50 nM) |
| O=C1CCC(N2Cc3ccc(N4CC(F)(CN5CCC(n6cc7cc(NC(=O)c8cnn9cccnc89)c(OCC8CC8)cc7n6)CC5)C4)cc3C2=O)C(=O)N1 (stereo not shown) [Example 245] | 80 to 90 | 0.01 to 0.05 | ≥ 90 | < 0.01 | 0.001 to 0.005 | 70 to 80 | A (A represents a DC90 value <10.0 nM) |
| COc1c(N2CC(F)(CN3CCC(n4cc5cc(NC(=O)c6cnn7cccnc67)c(OCC6CC6)cc5n4)CC3)C2)ccc2c1C(=O)N(C1CCC(=O)NC1=O)C2=O (stereo not shown) [Example 246] | 70 to 80 | < 0.01 | ≥ 90 | < 0.01 | 0.005 to 0.01 | < 70 | B (B represents a DC90 value ≥10.0 nM and <25.0 nM) |
| O=C1CCC(N2C(=O)c3ccc(N4CCCC5(CN(CCN6CCC(n7cc8cc(NC(=O)c9cnn%10cccnc9%10)c(OCC9CC9)cc8n7)CC6)C5)C4)cc3C2=O)C(=O)N1 (stereo not shown) [Example 248] | < 70 | 0.01 to 0.05 | ≥ 90 | 0.01 to 0.05 | 0.001 to 0.005 | < 70 | A (A represents a DC90 value <10.0 nM) |
| O=C1CCC(N2C(=O)c3ccc(N4CCC5(CC4)CN(CCN4CCC(n6cc7cc(NC(=O)c8cnn9cccnc89)c(OCC8CC8)cc7n6)CC4)C5)cc3C2=O)C(=O)N1 (stereo not shown) [Example 249] | < 70 | ≥ 0.1 | 80 to 90 | 0.01 to 0.05 | 0.001 to 0.005 | ≥ 90 | A (A represents a DC90 value <10.0 nM) |
| O=C1CCC(N2Cc3c(ccc(N4CC(F)(CN5CCC(n6cc7cc(NC(=O)c8cnn9cccnc89)c(OCC8CC8)cc7n6)CC5)C4)c3F)C2=O)C(=O)N1 (stereo not shown) [Example 250] | < 70 | ≥ 0.1 | 80 to 90 | 0.01 to 0.05 | 0.001 to 0.005 | 80 to 90 | B (B represents a DC90 value ≥10.0 nM and <25.0 nM) |
| O=C1CCC(N2Cc3c(ccc(N4CC(F)(CN5CCC(n6cc7cc(NC(=O)c8cnn9cccnc89)c(OCC(F)F)cc7n6)CC5)C4)c3F)C2=O)C(=O)N1 (stereo not shown) [Example 251] | < 70 | 0.05 to 0.1 | 80 to 90 | 0.01 to 0.05 | 0.001 to 0.005 | 80 to 90 | A (A represents a DC90 value <10.0 nM) |
| O=C1CC[C@@H](N2C(=O)c3ccc(N4CC(F)(CN5CCC(n6cc7cc(NC(=O)c8cnn9cccnc89)c(OCC8CC8)cc7n6)CC5)C4)cc3C2=O)C(=O)N1 [Example 253] | < 70 | 0.01 to 0.05 | ≥ 90 | 0.01 to 0.05 | 0.001 to 0.005 | ≥ 90 | B (B represents a DC90 value ≥10.0 nM and <25.0 nM) |
| O=C1CC[C@H](N2C(=O)c3ccc(N4CC(F)(CN5CCC(n6cc7cc(NC(=O)c8cnn9cccnc89)c(OCC8CC8)cc7n6)CC5)C4)cc3C2=O)C(=O)N1 [Example 254] | < 70 | 0.05 to 0.1 | ≥ 90 | 0.01 to 0.05 | 0.001 to 0.005 | ≥ 90 | A (A represents a DC90 value <10.0 nM) |
| O=C1CCC(N2C(=O)c3ccc(N4CC(F)(CN5CCC(n6cc7cc(NC(=O)c8cnn9cc(Cl)cnc89)c(OCC8CC8)cc7n6)CC5)C4)cc3C2=O)C(=O)N1 (stereo not shown) [Example 255] | 70 to 80 | 0.05 to 0.1 | ≥ 90 | 0.05 to 0.1 | ≥ 0.01 | ≥ 90 | D (D represents a DC90 value ≥50 nM) |
| CC(C)(C1CN(c2ccc3c(c2)C(=O)N(C2CCC(=O)NC2=O)C3=O)C1)N1CCC(n2cc3cc(NC(=O)c4cnn5cccnc45)c(OCC4CC4)cc3n2)CC1 (stereo not shown) [Example 256] | < 70 | 0.01 to 0.05 | 80 to 90 | 0.01 to 0.05 | < 0.001 | ≥ 90 | A (A represents a DC90 value <10.0 nM) |
| O=C1CCC(N2C(=O)c3ccc(N4CCC(O)(CN5CCC(n6cc7cc(NC(=O)c8cnn9cccnc89)c(OCC8CC8)cc7n6)CC5)CC4)cc3C2=O)C(=O)N1 (stereo not shown) [Example 257] | 70 to 80 | 0.01 to 0.05 | ≥ 90 | 0.01 to 0.05 | 0.001 to 0.005 | ≥ 90 | A (A represents a DC90 value <10.0 nM) |
| O=C1CCC(N2Cc3cc(N4CCC(O)(CN5CCC(n6cc7cc(NC(=O)c8cnn9cccnc89)c(OCC8CC8)cc7n6)CC5)CC4)ccc3C2=O)C(=O)N1 (stereo not shown) [Example 258] | 70 to 80 | < 0.01 | ≥ 90 | 0.01 to 0.05 | < 0.001 | 80 to 90 | A (A represents a DC90 value <10.0 nM) |
| O=C1CCC(N2C(=O)c3ccc(N4CCC5(CC4)CC(CN4CCC(n6cc7cc(NC(=O)c8cnn9cccnc89)c(OCC8CC8)cc7n6)CC4)C5)cc3C2=O)C(=O)N1 (stereo not shown) [Example 261] | 80 to 90 | 0.01 to 0.05 | 80 to 90 | 0.05 to 0.1 | 0.001 to 0.005 | ≥ 90 | A (A represents a DC90 value <10.0 nM) |
| O=C1CCC(N2C(=O)c3ccc(N4CC(F)(CN5CCC(n6cc7cc(NC(=O)c8cnn9cccnc89)c(OCC8CC8)cc7n6)CC5)C4)c(F)c3C2=O)C(=O)N1 (stereo not shown) [Example 262] | < 70 | 0.05 to 0.1 | ≥ 90 | 0.01 to 0.05 | 0.001 to 0.005 | 70 to 80 | A (A represents a DC90 value <10.0 nM) |
| CN1CC(Oc2cc3nn(C4CCN(CC5(F)CN(c6ccc7c(c6)C(=O)N(C6CCC(=O)NC6=O)C7=O)C5)CC4)cc3cc2NC(=O)c2cnn3cccnc23)C1 (stereo not shown) [Example 263] | < 70 | < 0.01 | ≥ 90 | 0.01 to 0.05 | ≥ 0.01 | ≥ 90 | A (A represents a DC90 value <10.0 nM) |
| O=C1CCC(N2Cc3c(F)cc(N4CC(F)(CN5CCC(n6cc7cc(NC(=O)c8cnn9cccnc89)c(OCC8CC8)cc7n6)CC5)C4)cc3C2=O)C(=O)N1 (stereo not shown) [Example 268, N-[6-(cyclopropylmethoxy)-2-[1-({1-[2-(2,6-dioxopiperidin-3-yl)-7-fluoro-3-oxo-2,3-dihydro-1H-isoindol-5-yl]-3-fluoroazetidin-3-yl}methyl)piperidin-4-yl]-2H-indazol-5-yl]pyrazolo[1,5-a]pyrimidine-3-carboxamide] | 70 to 80 | 0.01 to 0.05 | ≥ 90 | 0.01 to 0.05 | < 0.001 | ≥ 90 | A (A represents a DC90 value <10.0 nM) |
| O=C1CCC(N2Cc3cc(F)c(N4CC(F)(CN5CCC(n6cc7cc(NC(=O)c8cnn9cccnc89)c(OCC8CC8)cc7n6)CC5)C4)cc3C2=O)C(=O)N1 (stereo not shown) [Example 269, N-[6-(cyclopropylmethoxy)-2-[1-({1-[2-(2,6-dioxopiperidin-3-yl)-6-fluoro-3-oxo-2,3-dihydro-1H-isoindol-5-yl]-3-fluoroazetidin-3-yl}methyl)piperidin-4-yl]-2H-indazol-5-yl]pyrazolo[1,5-a]pyrimidine-3-carboxamide] | 80 to 90 | 0.01 to 0.05 | ≥ 90 | 0.01 to 0.05 | 0.001 to 0.005 | 80 to 90 | A (A represents a DC90 value <10.0 nM) |
